Measured values from patent publication US20230058279A1, “HERBICIDE COMPOSITIONS WITH AUXIN HERBICIDE MONOETHANOLAMINE SALTS WITH IMPROVED PROPERTIES” (MONSANTO TECHNOLOGY LLC, priority 2020, published 2023).

Assay: Partition coefficient of compound (A) in solvents
Format: physicochemical
Conditions: HPLC
Protocol: Experimental procedure for the respective solvent: (1) A solution of 10 g of compound (A) is prepared in 90 g of the respective solvent. (2) An aliquot of 10 g of the solution obtained in step (1) is added to 90 g of water in a glass bottle, which is shaken on a mechanical shaker for 4 hours at ambient temperature (approximately 25° C.). (3) The contents of the glass bottle are permitted to phase separate for 4 days at ambient temperature (approximately 25° C.). (4) Subsamples of the resulting oil and water phases are taken and analyzed by HPLC to determine the concentrations of compound (A) in oil (Co) and water phases (Cw) respectively. The subsamples are typically centrifuged before HPLC analysis to remove traces of organic solvent from the water phase.
A Partition Coefficient, analogous to the Octanol-Water Partition Coefficient, P, is calculated as Co/Cw. The Partition Coefficient is conveniently expressed as a logarithm […].
The ratio of determined concentrations of compound (A) in the solvent phase and the water phase typically is very large. […] In other cases, traces of the organic solvent are found in the water phase, even after centrifugation, so that the apparent concentration of oil-soluble herbicide observed in the water phase is misleadingly high. […]

CCOC(=O)COc1ncccc1Oc1cc(-n2c(=O)cc(C(F)(F)F)n(C)c2=O)c(F)cc1Cl [Cmp. A, ethyl [3-[2-chloro-4-fluoro-5-(1-methyl-6-trifluoromethyl-2,4-dioxo-1,2,3,4-tetrahydropyrimidin-3-yl)phenoxy]-2-pyridyloxy]acetate]
compound (A) in the water phase (acetophenone as organic solvent): undetectable
compound (A) in the water phase (aromatic 200ND as organic solvent): undetectable
